The values that follow come from patent US10287255B2, “Compounds as histone deacetylase 6 inhibitors and pharmaceutical compositions comprising the same” (CHONG KUN DANG PHARMACEUTICAL CORP., priority 2014, dated 2019).

Molecules are shown by their SMILES. A value given as a limit tells only on which side of the number the result lay.

The target in one assay is T1, human recombinant HDAC6 (Homo sapiens, UniProt Q9UBN7).
T1 construct: purchased Calbiochem 382180
T1 sequence (Q9UBN7 1-1215): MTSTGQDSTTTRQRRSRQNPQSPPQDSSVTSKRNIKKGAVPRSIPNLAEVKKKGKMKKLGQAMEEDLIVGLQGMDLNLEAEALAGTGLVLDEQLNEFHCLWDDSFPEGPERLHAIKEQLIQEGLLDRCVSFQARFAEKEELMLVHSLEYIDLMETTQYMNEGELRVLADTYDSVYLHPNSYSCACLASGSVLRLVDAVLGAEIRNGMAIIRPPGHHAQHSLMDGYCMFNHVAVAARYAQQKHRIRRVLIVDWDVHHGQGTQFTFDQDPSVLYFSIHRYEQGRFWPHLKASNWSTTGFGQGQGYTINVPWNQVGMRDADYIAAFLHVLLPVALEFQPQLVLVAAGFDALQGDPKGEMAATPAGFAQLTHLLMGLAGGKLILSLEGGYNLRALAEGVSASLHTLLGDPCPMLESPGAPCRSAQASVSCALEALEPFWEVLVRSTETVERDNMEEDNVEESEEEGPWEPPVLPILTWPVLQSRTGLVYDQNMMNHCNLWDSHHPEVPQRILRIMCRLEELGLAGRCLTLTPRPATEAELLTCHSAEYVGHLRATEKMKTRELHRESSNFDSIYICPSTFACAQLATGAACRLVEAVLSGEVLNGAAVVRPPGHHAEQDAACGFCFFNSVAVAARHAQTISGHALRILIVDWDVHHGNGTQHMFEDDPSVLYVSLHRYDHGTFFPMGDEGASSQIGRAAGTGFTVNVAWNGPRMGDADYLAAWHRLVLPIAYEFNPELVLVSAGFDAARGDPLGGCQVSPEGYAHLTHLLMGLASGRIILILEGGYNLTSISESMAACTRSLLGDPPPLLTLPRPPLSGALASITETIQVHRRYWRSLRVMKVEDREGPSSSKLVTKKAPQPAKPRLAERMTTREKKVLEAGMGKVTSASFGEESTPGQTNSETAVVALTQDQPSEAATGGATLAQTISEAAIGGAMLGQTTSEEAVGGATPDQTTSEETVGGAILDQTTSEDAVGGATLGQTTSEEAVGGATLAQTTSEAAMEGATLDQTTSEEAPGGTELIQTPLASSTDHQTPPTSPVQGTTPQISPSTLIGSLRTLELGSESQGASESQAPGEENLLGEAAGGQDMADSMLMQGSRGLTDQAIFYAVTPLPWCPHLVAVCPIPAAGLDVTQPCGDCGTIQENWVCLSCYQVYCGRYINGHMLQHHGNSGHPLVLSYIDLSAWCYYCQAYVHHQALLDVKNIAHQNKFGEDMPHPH
Briefly: HDAC6 enzyme activity inhibition assay (in vitro, fluorimetric). In kind it is biochemical. To be noted: for HDAC6 selectivity (fold): HDAC6 selectivity over HDAC1; for IC50: human recombinant HDAC6, fluorimetric kit, same protocol as HDAC1. The method in brief:
(§1)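 Human recombinant enzyme (0.3 μg for HDAC1) reacted with 10 μM Fluor de Lys-SIRT1 substrate and 5-fold compound dilutions at 30 °C for 60 min, then developer for 30 min. Fluorescence read at Ex 360/Em 460; IC50 calculated. HDAC6 run by the same protocol.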

The target in another assay is T2, human recombinant HDAC1 (Homo sapiens, UniProt Q13547).
T2 construct: purchased Enzo Life Science BML-SE456
As to the kind of experiment: HDAC1 enzyme activity inhibition assay (in vitro, fluorimetric). In kind it is biochemical. To be noted: human recombinant HDAC1, fluorimetric kit, 30° C. 60 minutes. The method in brief: as §1

T2 sequence (Q13547 whole entry): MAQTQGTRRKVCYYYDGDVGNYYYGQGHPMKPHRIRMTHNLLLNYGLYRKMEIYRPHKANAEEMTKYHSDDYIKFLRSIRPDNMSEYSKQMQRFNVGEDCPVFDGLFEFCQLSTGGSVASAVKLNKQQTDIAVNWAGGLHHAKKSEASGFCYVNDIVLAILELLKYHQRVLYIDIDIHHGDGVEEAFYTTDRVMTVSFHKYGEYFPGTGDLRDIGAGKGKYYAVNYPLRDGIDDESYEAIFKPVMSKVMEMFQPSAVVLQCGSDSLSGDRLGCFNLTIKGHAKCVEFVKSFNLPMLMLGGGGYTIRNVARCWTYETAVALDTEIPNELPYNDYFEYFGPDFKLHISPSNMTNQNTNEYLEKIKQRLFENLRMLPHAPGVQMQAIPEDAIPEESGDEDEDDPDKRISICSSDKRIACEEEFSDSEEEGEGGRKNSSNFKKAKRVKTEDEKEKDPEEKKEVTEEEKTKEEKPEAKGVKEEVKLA

As a reminder, the IC50 is the concentration needed to halve the response being measured. Turning to `CC(C)N1CCN(Cc2cccc(C(=O)N3[C@H](C)CN(Cc4ccc(C(=O)NO)cc4)C[C@@H]3C)c2)CC1` [Compound 434, N-hydroxy-4-(((3R,5S)-4-(3-((4-isopropylpiperazin-1-yl)methyl)benzoyl)-3,5-dimethylpiperazin-1-yl)methyl)benzamide], at human recombinant HDAC6, the “HDAC6 selectivity (fold)” value is 61 fold and the IC50 was determined as 60 nM. Further, the IC50 at human recombinant HDAC1 was 3700 nM.
Consider `C[C@@H]1CN(Cc2ccc(C(=O)NO)cc2)C[C@H](C)N1Cc1cccc(CN2CCCCC2)c1` [Compound 382, 4-(((3R,5S)-3,5-dimethyl-4-(3-(piperidin-1-ylmethyl)benzyl)piperazin-1-yl)methyl)-N-hydroxybenzamide], for which the IC50 was 83 nM at human recombinant HDAC6 and > 10000 nM on human recombinant HDAC1.
For the compound `C[C@@H]1CN(Cc2ccc(C(=O)NO)cc2)C[C@H](C)N1Cc1cccc(Cl)c1` [Compound 128, 4-(((3R,5S)-4-(3-chlorobenzyl)-3,5-dimethylpiperazin-1-yl)methyl)-N-hydroxybenzamide], on human recombinant HDAC6, the “HDAC6 selectivity (fold)” value came to 5540 fold. Also, the IC50 at human recombinant HDAC6 worked out at 2 nM; at human recombinant HDAC1, 11100 nM.
As for `C[C@@H]1CN(Cc2ccc(C(=O)NO)cc2)C[C@H](C)N1C(=O)C1CCCO1` (stereo partly drawn) [Compound 402, 4-(((3R,5S)-3,5-dimethyl-4-(tetrahydrofuran-2-carbonyl)piperazin-1-yl)methyl)-N-hydroxybenzamide], at human recombinant HDAC6, the “HDAC6 selectivity (fold)” value stood at 32 fold. For the same compound, the IC50 was found to be 161 nM on human recombinant HDAC6 and 5200 nM at human recombinant HDAC1.
`C[C@@H]1CN(C(=O)Cc2cccc(C3=CCC(C)(C)CC3)c2)C[C@H](C)N1Cc1ccc(C(=O)NO)cc1` [Compound 253, 4-(((2S,6R)-4-(2-(4′,4′-dimethyl-2′,3′,4′,5′-tetrahydro-[1,1′-biphenyl]-3-yl)acetyl)-2,6-dimethylpiperazin-1-yl)methyl)-N-hydroxybenzamide]: at human recombinant HDAC6, the “HDAC6 selectivity (fold)” value turned out to be 15 fold and the IC50 worked out at 1540 nM. Besides, the IC50 at human recombinant HDAC1 was 22600 nM.
As for `C[C@@H]1CN(C(=O)c2cccc(C3=CCOCC3)c2)C[C@H](C)N1Cc1ccc(C(=O)NO)cc1` [Compound 259, 4-(((2S,6R)-4-(3-(3,6-dihydro-2H-pyran-4-yl)benzoyl)-2,6-dimethylpiperazin-1-yl)methyl)-N-hydroxybenzamide], the “HDAC6 selectivity (fold)” value at human recombinant HDAC6 is reported as 6 fold. In addition, the IC50 on human recombinant HDAC6 was found to be 400 nM; at human recombinant HDAC1 it was 2500 nM.
As for `C[C@@H]1CN(S(=O)(=O)c2ccccc2)C[C@H](C)N1Cc1ccc(C(=O)NO)cc1` [Compound 105, 4-(((2S,6R)-2,6-dimethyl-4-(phenylsulfonyl)piperazin-1-yl)methyl)-N-hydroxybenzamide], the “HDAC6 selectivity (fold)” value on human recombinant HDAC6 was 27 fold. Also, the IC50 at human recombinant HDAC6 was 60 nM; at human recombinant HDAC1 it was 1600 nM.
Regarding `CC(C)CCN1CCN(Cc2cccc(C(=O)N3[C@H](C)CN(Cc4ccc(C(=O)NO)cc4)C[C@@H]3C)c2)CC1` [Compound 442, N-hydroxy-4-(((3R,5S)-4-(3-((4-isopentylpiperazin-1-yl)methyl)benzoyl)-3,5-dimethylpiperazin-1-yl)methyl)benzamide], on human recombinant HDAC6, the “HDAC6 selectivity (fold)” value is 65 fold and the IC50 is 120 nM. The IC50 at human recombinant HDAC1 is 7800 nM.
With `C[C@@H]1CN(Cc2ccc(C(=O)NO)cc2)C[C@H](C)N1Cc1cccc(-n2cccc2)c1` [Compound 255, 4-(((3R,5S)-4-(3-(1H-pyrrol-1-yl)benzyl)-3,5-dimethylpiperazin-1-yl)methyl)-N-hydroxybenzamide], on human recombinant HDAC6, the “HDAC6 selectivity (fold)” value came out at 354 fold and the IC50 amounted to 24 nM. Further, the IC50 at human recombinant HDAC1 came to 8500 nM.
The matching figures for `C[C@@H]1CN(Cc2ccc(C(=O)NO)cc2)C[C@H](C)N1Cc1cccc(CN2CCN(CC(C)(C)F)CC2)c1` [Compound 387, 4-(((3R,5S)-4-(3-((4-(2-fluoro-2-methylpropyl)piperazin-1-yl)methyl)benzyl)-3,5-dimethylpiperazin-1-yl)methyl)-N-hydroxybenzamide]: >118 fold, 85 nM and > 10000 nM.
Take `C[C@@H]1CN(Cc2ccc(C(=O)NO)cc2)C[C@H](C)N1C(=O)Cc1cccc(-c2ccccc2)c1` [Compound 234, 4-(((3R,5S)-4-(2-([1,1′-biphenyl]-3-yl)acetyl)-3,5-dimethylpiperazin-1-yl)methyl)-N-hydroxybenzamide]: on human recombinant HDAC6, the “HDAC6 selectivity (fold)” value was 17 fold and the IC50 came out at 512 nM. The IC50 at human recombinant HDAC1 stood at 8900 nM.
In the same order, the values of `CC(C)CCN1C[C@@H](C)N(Cc2ccc(C(=O)NO)cc2)[C@@H](C)C1` [Compound 271, N-hydroxy-4-(((2S,6R)-4-isopentyl-2,6-dimethylpiperazin-1-yl)methyl)benzamide] are <13 fold, > 1000 nM and 12500 nM.
Take `C[C@@H]1CN(Cc2ccc(C(=O)NO)cc2)C[C@H](C)N1C(=O)c1ccccc1C1=CCC(C)(C)CC1` [Compound 288, 4-(((3R,5S)-4-(4′,4′-dimethyl-2′,3′,4′,5′-tetrahydro-[1,1′-biphenyl]-2-carbonyl)-3,5-dimethylpiperazin-1-yl)methyl)-N-hydroxybenzamide]: at human recombinant HDAC6, the “HDAC6 selectivity (fold)” value is reported as 33 fold and the IC50 is 326 nM. In addition, on human recombinant HDAC1, the IC50 came to 10700 nM.
`C[C@@H]1CN(Cc2ccc(C(=O)NO)cc2)C[C@H](C)N1Cc1ccc(CN2CC[C@@H](F)C2)cc1` [Compound 411, 4-(((3R,5S)-4-(4-(((R)-3-fluoropyrrolidin-1-yl)methyl)benzyl)-3,5-dimethylpiperazin-1-yl)methyl)-N-hydroxybenzamide]: at human recombinant HDAC6, the “HDAC6 selectivity (fold)” value was 538 fold and the IC50 was 8 nM. Further, the IC50 at human recombinant HDAC1 stood at 4300 nM.
Turning to `C[C@@H]1CN(Cc2ccc(C(=O)NO)cc2)C[C@H](C)N1C(=O)c1cccc(CN2CCCCC2)c1` [Compound 424, 4-(((3R,5S)-3,5-dimethyl-4-(3-(piperidin-1-ylmethyl)benzoyl)piperazin-1-yl)methyl)-N-hydroxybenzamide], the “HDAC6 selectivity (fold)” value on human recombinant HDAC6 worked out at 27 fold. Besides, the IC50 is 43 nM at human recombinant HDAC6 and 1200 nM on human recombinant HDAC1.
In the case of `C[C@@H]1CN(Cc2ccccc2)C[C@H](C)N1Cc1ccc(C(=O)NO)cc1` [Compound 081, 4-(((2S,6R)-4-benzyl-2,6-dimethylpiperazin-1-yl)methyl)-N-hydroxybenzamide], on human recombinant HDAC6, the “HDAC6 selectivity (fold)” value is listed as 78 fold and the IC50 is 144 nM. In addition, the IC50 at human recombinant HDAC1 worked out at 11200 nM.
On to `C[C@@H]1CN(c2ccc(F)cc2)C[C@H](C)N1Cc1ccc(C(=O)NO)cc1` [Compound 119, 4-(((2S,6R)-4-(4-fluorophenyl)-2,6-dimethylpiperazin-1-yl)methyl)-N-hydroxybenzamide], for which the “HDAC6 selectivity (fold)” value at human recombinant HDAC6 stood at 26 fold. Besides, the values for the IC50 at human recombinant HDAC6 and at human recombinant HDAC1 were 309 nM and 8200 nM, respectively.
In the case of `C[C@@H]1CN(Cc2ccc3[nH]c(C(=O)NO)cc3c2)C[C@H](C)N1Cc1ccccc1` [Compound 569, 5-(((3R,5S)-4-benzyl-3,5-dimethylpiperazin-1-yl)methyl)-N-hydroxy-1H-indole-2-carboxamide], on human recombinant HDAC6, the “HDAC6 selectivity (fold)” value came to 82 fold and the IC50 amounted to 840 nM. Moreover, the IC50 at human recombinant HDAC1 is > 10000 nM.
